According to patent US7329681B2, “Inhibitors of IMPDH enzyme” (Vertex Pharmaceuticals Incorporated, priority 1996, dated 2008):
pKi: −log10 of the molar value. Where two headings read alike, the source gives them in different places.

Biological target: IMPDH human type II (Homo sapiens, UniProt P12268)
Test: IMPDH activity inhibition assay (spectrophotometric, NADH formation at 340 nm)
Format: biochemical
Experimental: We have measured the inhibition constants of each compound against IMPDH using an adaptation of the method first reported by […]. Moyed, and […]. Biol. Chem., 226, p. 339 (1957)]. We measured the inhibition constants of the compounds listed in Table III utilizing the following protocol: IMP dehydrogenase activity was assayed following an adaptation of the method first reported by […]. Moyed, H. S. and […]. Biol. Chem. 226, 339]. Enzyme activity was measured spectrophotometrically, by monitoring the increase in absorbance at 340 nm due to the formation of NADH (ε340 is 6220 M^-1 cm^-1). The reaction mixture contained 0.1 M Tris pH 8.0, 0.1 M KCl, 3 mM EDTA, 2 mM DTT, […] and enzyme (IMPDH human type II) at a concentration of 15 to 50 nM. This solution is incubated at 37° C. for 10 minutes. The reaction is started by adding NAD to a final concentration of 0.1 M and the initial rate is measured by following the linear increase in absorbance at 340 nm for 10 minutes. For reading in a standard spectrophotometer (path length 1 cm) the final volume in the cuvette is 1.0 ml. The assay has also been adapted to a 96 well microtiter plate format; in this case the concentrations of all the reagents remain the same and the final volume is decreased to 200 μl. For the analysis of inhibitors, the compound in question is dissolved in DMSO to a final concentration of 20 mM and added to the initial assay mixture for preincubation with the enzyme at a final volume of 2-5% (v/v). The reaction is started by the addition of NAD, and the initial rates measured as above. […] The designation “ND” is used where a given compound was not tested.

[1] = IMPDH human type II, 15 to 50 nM enzyme, 37° C., tight-binding fit (Henderson), read-out: Ki

pKi [1] | SMILES | pKi
6.00 to 7.29 | O=C(Nc1cccc(I)c1)Nc1ccc(-c2cnco2)c(Cl)c1 [Compound 73] | 
5.00 to 6.00 | COC(=O)c1cc(NC(=O)Nc2cccc(C)c2)ccc1-c1cnco1 [Compound 88] | 
5.00 to 6.00 | Cc1ncc(-c2cccc(NC(=O)Nc3ccc(-c4cnco4)cc3)c2)cn1 [Compound 66] | 
6.00 to 7.29 | COc1cc(NC(=O)Nc2cccc(CNC(=O)OCC3CCCNC3)c2)ccc1-c1cnco1 (stereo not shown) [Compound 158] | 
7.30 to 11.00 | COc1cc(NC(=O)Nc2cccc(N)c2)ccc1-c1cnco1 [Compound 59] | 
< 5.00 | O=C(Nc1ccc(-c2cnco2)cc1)Nc1ccc(F)c(F)c1 [Compound 4] | 
7.30 to 11.00 | COCCOC(=O)NCc1cccc(NC(=O)Nc2ccc(-c3cnco3)c(OC)c2)c1 [Compound 130] | 
5.00 to 6.00 | O=C(Nc1ccc(-c2cnco2)cc1)Nc1cccc(-c2cnco2)c1 [Compound 67] | 
5.00 to 6.00 | O=C(NCc1ccccc1)Nc1ccc(-c2cnco2)cc1 [Compound 1] | 
7.30 to 11.00 | COc1cc(NC(=O)Nc2cccc(NC(=O)Cc3ccccc3)c2)ccc1-c1cnco1 [Compound 111] | 
< 5.00 | O=C(Nc1ccc(-c2cnco2)cc1)Nc1ccc2c(c1)OCCO2 [Compound 39] | 
6.00 to 7.29 | COc1cc(NC(=O)Nc2cccc(NC(=O)C(F)(F)F)c2)ccc1-c1cnco1 [Compound 96] | 
7.30 to 11.00 | COc1cc(NC(=O)Nc2cccc(CNC(=O)OCc3ccco3)c2)ccc1-c1cnco1 [Compound 128] | 
7.30 to 11.00 | COc1cc(NC(=O)Nc2cccc(CNC(=O)OCC(C)C)c2)ccc1-c1cnco1 [Compound 124] | 
5.00 to 6.00 | Cc1cc(NC(=O)Nc2ccc(-c3cnco3)cc2)ccc1[N+](=O)[O-] [Compound 40] | 
 | COc1cc(NC(=O)Nc2cccc(CNC(=O)OCCO)c2)ccc1-c1cnco1 [Compound 134] | 7.30 to 11.00
6.00 to 7.29 | O=C(Nc1ccc(-c2cnco2)cc1)Nc1cccc(Br)c1 [Compound 7] | 
7.30 to 11.00 | COCCCOC(=O)NCc1cccc(NC(=O)Nc2ccc(-c3cnco3)c(OC)c2)c1 [Compound 162] | 
6.00 to 7.29 | COc1cc(NC(=O)Nc2cccc(NC(C)=O)c2)ccc1-c1cnco1 [Compound 84] | 
7.30 to 11.00 | COc1cc(NC(=O)Nc2cccc(CNC(=O)O[C@H]3CCOC3)c2)ccc1-c1cnco1 [Compound 120] | 
5.00 to 6.00 | O=C(Nc1ccc(-c2cnco2)cc1)Nc1cccc(S(=O)(=O)Nc2ccccc2)c1 [Compound 82] | 
5.00 to 6.00 | CCc1cccc(NC(=O)Nc2ccc(OC)c(OC)c2)c1 [Compound 37] | 
7.30 to 11.00 | COc1cc(NC(=O)Nc2cccc(CNC(=O)OC(C)(C)C)c2)ccc1-c1cnco1 [Compound 113] | 
6.00 to 7.29 | Nc1cccc(NC(=O)Nc2ccc(-c3cnco3)c(Br)c2)c1 [Compound 65] | 

pKi [1] | SMILES | pKi
7.30 to 11.00 | COc1cc(NC(=O)Nc2cccc(CNC(=O)OCc3ccccn3)c2)ccc1-c1cnco1 [Compound 121] | 
7.30 to 11.00 | COc1cc(NC(=O)Nc2cccc(CNC(=O)OC3CCSC3)c2)ccc1-c1cnco1 (stereo not shown) [Compound 160] | 
6.00 to 7.29 | COc1cc(NC(=O)Nc2cccc(NC(=O)Nc3ccccc3)c2)ccc1-c1cnco1 [Compound 112] | 
 | COc1cc(NC(=O)Nc2cccc(CNC(=O)Oc3ccc(NC(C)=O)cc3)c2)ccc1-c1cnco1 [Compound 127] | 7.30 to 11.00
5.00 to 6.00 | CNS(=O)(=O)c1cccc(NC(=O)Nc2ccc(-c3cnco3)cc2)c1 [Compound 81] | 
5.00 to 6.00 | O=C(Nc1ccc(-c2cnco2)cc1)Nc1cccc([N+](=O)[O-])c1 [Compound 15] | 
5.00 to 6.00 | O=C(O)Cc1cccc(NC(=O)Nc2ccc(-c3cnco3)c(Cl)c2)c1 [Compound 63] | 
5.00 to 6.00 | O=C(Nc1ccc(Oc2ccccc2)cc1)Nc1ccc(-c2cnco2)cc1 [Compound 21] | 
5.00 to 6.00 | O=C(Nc1ccc(-c2cnco2)cc1)Nc1ccc(F)c(Cl)c1 [Compound 23] | 
7.30 to 11.00 | CN(C(=O)C(F)(F)F)c1cccc(NC(=O)Nc2ccc(-c3cnco3)c(Cl)c2)c1 [Compound 93] | 
6.00 to 7.29 | COc1cc(NC(=O)Nc2cccc(CN)c2)ccc1-c1cnco1 [Compound 105] | 
7.30 to 11.00 | COc1cc(NC(=O)Nc2cccc(C)c2)ccc1-c1cnco1 [Compound 55] | 
5.00 to 6.00 | O=C(Nc1ccc(-c2cnco2)cc1)Nc1ccccc1C(F)(F)F [Compound 19] | 
7.30 to 11.00 | COc1cc(NC(=O)Nc2cccc(CNC(=O)OC3CCCNC3)c2)ccc1-c1cnco1 (stereo not shown) [Compound 153] | 
5.00 to 6.00 | CC(=O)Nc1cccc(NC(=O)Nc2ccc(-c3cnco3)c(Cl)c2)c1 [Compound 72] | 
5.00 to 6.00 | COc1ccc(OC)c(NC(=O)Nc2ccc(-c3cnco3)cc2)c1 [Compound 14] | 
 | COc1cc(NC(=O)Nc2cccc(CNC(=O)Oc3ccccc3)c2)ccc1-c1cnco1 [Compound 119] | 7.30 to 11.00
6.00 to 7.29 | Cc1cccc(NC(=O)Nc2ccc(-c3cnco3)c(Cl)c2)c1 [Compound 43] | 
7.30 to 11.00 | COc1cc(NC(=O)Nc2cccc(CNC(=O)OC[C@@H]3CNC(=O)O3)c2)ccc1-c1cnco1 [Compound 122] | 
7.30 to 11.00 | COc1cc(NC(=O)Nc2cccc(CNC(=O)OCC3CCCCC3)c2)ccc1-c1cnco1 [Compound 135] | 
6.00 to 7.29 | CNc1cccc(NC(=O)Nc2ccc(-c3cnco3)c(Cl)c2)c1 [Compound 94] | 
6.00 to 7.29 | O=C(Nc1cccc([N+](=O)[O-])c1)Nc1ccc(-c2cnco2)c(Cl)c1 [Compound 78] | 
6.00 to 7.29 | COc1cc(NC(=O)Nc2cccc(NC(=O)C(=O)c3cc(OC)c(OC)c(OC)c3)c2)ccc1-c1cnco1 [Compound 108] | 
7.30 to 11.00 | COc1cc(NC(=O)Nc2cccc(CNC(=O)OCc3cccs3)c2)ccc1-c1cnco1 [Compound 129] | 

pKi [1] | SMILES | pKi
7.30 to 11.00 | COc1cc(NC(=O)Nc2cccc(CNC(=O)OCC3CCCN(C(=O)OC(C)(C)C)C3)c2)ccc1-c1cnco1 (stereo not shown) [Compound 149] | 
6.00 to 7.29 | O=C(Nc1ccccc1)Nc1ccc(-c2cnco2)c(Cl)c1 [Compound 42] | 
5.00 to 6.00 | COc1ccc(NC(=O)Nc2cccc(F)c2)cc1OC [Compound 36] | 
6.00 to 7.29 | COc1cc(NC(=O)Nc2cccc(CNC(=O)OC3CCCN(C(=O)OC(C)(C)C)C3)c2)ccc1-c1cnco1 (stereo not shown) [Compound 143] | 
6.00 to 7.29 | Cc1cc(NC(=O)Nc2ccccc2)ccc1-c1cnco1 [Compound 74] | 
5.00 to 6.00 | O=C(Nc1ccc(-c2cnco2)cc1)Nc1cccc(CO)c1 [Compound 25] | 
6.00 to 7.29 | COc1cc(NC(=O)Nc2cccc(CNC(=O)OC3C(=O)OCC3(C)C)c2)ccc1-c1cnco1 (stereo not shown) [Compound 144] | 
6.00 to 7.29 | Nc1cccc(NC(=O)Nc2ccc(-c3cnco3)c(Cl)c2)c1 [Compound 79] | 
7.30 to 11.00 | COc1cc(NC(=O)Nc2cccc(CNC(=O)OCC3CCN(C(=O)OC(C)(C)C)CC3)c2)ccc1-c1cnco1 [Compound 148] | 
5.00 to 6.00 | N#Cc1cccc(NC(=O)Nc2ccc(-c3cnco3)cc2)c1 [Compound 8] | 
6.00 to 7.29 | COc1cc(NC(=O)Nc2cccc(CNC(=O)OCCCNC(=O)OC(C)(C)C)c2)ccc1-c1cnco1 [Compound 139] | 
6.00 to 7.29 | COc1cc(NC(=S)Nc2cccc(C)c2)ccc1-c1cnco1 [Compound 115] | 
7.30 to 11.00 | COc1cc(NC(=O)Nc2cccc(CNC(=O)OCC3CCCCO3)c2)ccc1-c1cnco1 (stereo not shown) [Compound 154] | 
6.00 to 7.29 | COc1cc(NC(=O)Nc2ccc3c(c2)N(C(C)=O)CC3)ccc1-c1cnco1 [Compound 106] | 
7.30 to 11.00 | COc1cc(NC(=O)Nc2cccc(CNC(=O)OC3COCOC3)c2)ccc1-c1cnco1 [Compound 126] | 
5.00 to 6.00 | COc1ccc(C)cc1NC(=O)Nc1ccc(-c2cnco2)cc1 [Compound 11] | 
5.00 to 6.00 | COc1ccc(NC(=O)Nc2cccc(C)c2)cc1OC [Compound 28] | 
6.00 to 7.29 | CC(=O)N(C)c1cccc(NC(=O)Nc2ccc(C#N)c(Cl)c2)c1 [Compound 163] | 
7.30 to 11.00 | COc1cc(NC(=O)Nc2cccc(CNC(=O)OC3CCOCC3)c2)ccc1-c1cnco1 [Compound 131] | 
< 5.00 | COc1ccc(NC(=O)Nc2cccc(SC)c2)cc1OC [Compound 38] | 
7.30 to 11.00 | COc1cc(NC(=O)Nc2cccc(CNC(=O)OC3CCCCO3)c2)ccc1-c1cnco1 (racemic) [Compound 142] | 
5.00 to 6.00 | O=C(O)Cc1cccc(NC(=O)Nc2ccc(-c3cnco3)cc2)c1 [Compound 54] | 
6.00 to 7.29 | COc1cc(NC(=O)Nc2cccc(NC(=O)OCc3ccccc3)c2)ccc1-c1cnco1 [Compound 83] | 
6.00 to 7.29 | Cc1cccc(NC(=O)Nc2ccc(-c3cnco3)c(Br)c2)c1 [Compound 60] | 

SMILES | pKi [1] | pKi
O=C(Nc1ccc(-c2cnco2)cc1)Nc1ccc([N+](=O)[O-])c(C(F)(F)F)c1 [Compound 41] | 5.00 to 6.00 | 
